Assay results from patent US6048840A, “Hypoglycaemic peptides” (Monash University, priority 1987, dated 2000).
Non-standard residues stand in square brackets, D forms with d. No end group written: not given here.

What was measured:
[1] = system: cultured muscle cells (L6 rat skeletal muscle cell line); experiment: Cultured cell assay for stimulation of glucose uptake; type: cell-based; settings: peptide 10 μg/ml
From the text: (§1) In these assays collagenase-dispersed rat adipocytes, cultured muscle cells (L6 rat skeletal muscle cell line) and hemidiaphragm preparations were employed.
(§2) The effect of the β imide form peptides on glucose metabolism is further shown by their ability to stimulate glucose uptake and glycogen synthesis by cultured muscle cells and isolated rat hemidiaphragms.

[2] = system: isolated rat hemidiaphragms; experiment: Isolated muscle assay for stimulation of glycogen synthesis; type: cell-based; settings: peptide 100 μg/ml
From the text: as §1, §2

rats = experiment: Change in blood glucose level in rats following intravenous injection of peptides; type: in vivo, rat
From the text: (i) Effect on basal blood glucose levels
Values are changes (means ±SEM) of blood glucose from the basal level (4.0-4.4 mmol glucose/l) at time 0. Differences between the control and test groups were statistically evaluated according to Student's t-test. N.S. indicates 2P>0.05.

CYLSRLFDNA [Pep P168]
Rate of Increase from Basal (glucose uptake) [1]: 4.0 μmol glucose/hour

CYLSRLFDNA [Pep P202]
Rate of Increase from Basal (glycogen synthesis) [2]: 0.44 μmol glycogen/g tissue/h | Rate of Increase from Basal (glucose uptake) [1]: 1.9 μmol glucose/hour

CYLSRLFDNN [Pep P197]
Rate of Increase from Basal (glycogen synthesis) [2]: 0.17 μmol glycogen/g tissue/h

LSKLFDNA [Pep P090]
Rate of Increase from Basal (glycogen synthesis) [2]: 0.16 μmol glycogen/g tissue/h

LSRIFDNA [Pep P087]
Rate of Increase from Basal (glycogen synthesis) [2]: 0.36 μmol glycogen/g tissue/h

LSRLFDNA [Pep P051, b240 implies β imide form]
Rate of Increase from Basal (glycogen synthesis) [2]: 0.74 μmol glycogen/g tissue/h | Rate of Increase from Basal (glucose uptake) [1]: 3.3 μmol glucose/hour

LSRLFDNAG [Pep P063]
Rate of Increase from Basal (glucose uptake) [1]: 1.9 μmol glucose/hour

LSRLFDQA [Pep P076]
Rate of Increase from Basal (glycogen synthesis) [2]: 0.30 μmol glycogen/g tissue/h

LSRLHDNA [Pep P078]
Rate of Increase from Basal (glycogen synthesis) [2]: 0.11 μmol glycogen/g tissue/h

LSRL[dF]DNA [Pep P057]
Rate of Increase from Basal (glucose uptake) [1]: 2.0 μmol glucose/hour

LSRVFDNA [Pep P086]
Rate of Increase from Basal (glucose uptake) [1]: 4.9 μmol glucose/hour

Pep (6-15): α-form synthetic peptide equivalent to hGH residues 6-15 (LSRLFDNAML; Somatotropin; UniProt P01241 32-41, looked up, fragment)
Difference from control means (rats; i.v., peptide 0.5 μmol/100 g, control decrease 1.05): 0.21 mmol/L | Hypoglycaemic effect / activity in words (rats; intravenous injection of peptide): active only in the β imide form | Decrease in blood glucose from basal levels (rats; intravenous injection, peptide 0.5 μmol/100 g, basal level 4.0-4.4 mmol glucose/l at time 0): 1.26 mmol glucose/l

SRLFDNA [Pep P015, synthetic peptide; b240 implies β imide form]
Rate of Increase from Basal (glucose uptake) [1]: 1.5 μmol glucose/hour
